Data on six molecules can be found in paper PMC5033595, “The Effectiveness of Natural Diarylheptanoids against Trypanosoma cruzi: Cytotoxicity, Ultrastructural Alterations and Molecular Modeling Studies” (PLoS ONE, 2016).

Like-named read-outs stand apart in the source and are kept apart here. Bounds are passed on as bounds.

Data set [1] deals with T. cruzi epimastigotes (Dm28c strain). Briefly: Flow cytometry analysis of the cell cycle (DNA content). The data set is classed as cell-based, Trypanosoma cruzi. Particulars: 48 h. As for the experimental part:
The cultures treated with CUR, DMC and BDMC at a concentration of 100 μM led to an accumulation of, respectively, 45%, 52% and 40% of cells in the G2 phase, while in the non-treated cells, G2 population was 20%. The ability to arrest cells in the G2/M phase is a characteristic of microtubule-interacting agents. For this reason, we used paclitaxel as positive control, a known microtubule drug that is active against Trypanosomatidae organisms. Consistently with its action on microtubules, paclitaxel promoted an accumulation of 57% of cells in the G2 phase (Fig 9). Thus, the effects of curcuminoids in the cell cycle can be explained, at least partially, by the disturbance of microtubules, in agreement with the mechanism of interaction with tubulin proposed by the electron microscopy experiments. The arising of sub-G1 peaks possibly correspond to apoptotic cells, what is more prominent in paclitaxel than in the curcuminoids treated cultures and the small sub-G1populations indicate that curcuminoids promote low apoptosis (Fig 9).
Fig 9 Percentage of cells in different phases of cell cycle. Cells were treated with CUR and DMC at 10, 50 and 100 μM concentrations and with 100 μM BDMC. Paclitaxel (20 μM) was employed as positive control, and DMSO 0.02% as negative control. Results are the mean of the triplicates with standard deviation represented by error bars. Statistical significance relative to control * P<0.05, ** P<0.01 and *** P<0.001. The data shown were obtained from three independent experiments.
Epismatigotes forms of T. cruzi (Dm28c strain) were grown at 28°C in BHI medium at a concentration of 2x10^6 cells.mL^-1 in 12-well culture plates (TPP™, Switzerland). Test compounds (CUR, DMC and BMDC) were added in triplicate at concentrations of 10, 50 and 100 μM. The controls used were the vehicle (DMSO 0.02%) and paclitaxel at 20 μM concentration. After 48 h of incubation, parasites were fixed in ethanol 70% for 30 min at -20°C. Next, cells were centrifuged at 200 rcf for 8 min and washed with PBS. Then, the samples were incubated for 10 min with a permeabilization buffer (0.2 M Na2HPO4 and 0.005% Triton-X, pH 7.8). Finally, cells were centrifuged at 200 rcf for 8 min and stained in a solution of 50 μg.mL^-1 propidium iodide (PI) and 0.2 μg.mL^-1 RNAse for 30 min at room temperature. DNA content was analyzed measuring PI fluorescence in a BD […] cytometer (Becton Dickinson Company, USA) at 488 nm excitation wavelength and 585/40 nm emission filter.
Supplementary file pone.0162926.s006.tif: S6 Fig Representative fluorescence histograms showing DNA content of cell-cycle phases (Sub-G1, G1, S and G2) of parasites (Dm28c strain). […]
On the technique in general: Flow cytometry measures light scatter and fluorescence of single cells or particles in a stream.

The test system is the same in data set [2]. Briefly: Anti-epimastigote effect (proliferation/survival, counting of viable forms). The data set is classed as cell-based, Trypanosoma cruzi. As to conditions: for activity on proliferation/survival of epimastigotes (in words): 100, 50, 25 and 2 μM; for IC50: read-out: IC50 T. cruzi. As for the experimental part: The four natural compounds (CUR, DMC, BDMC and CC) were evaluated on the proliferation/survival of T. cruzi epimastigotes (Dm28c strain) in four different concentrations (100, 50, 25 and 2 μM). The parasites were cultivated for 7 days in BHI (Brain Heart Infusion) medium supplemented with 10% (v/v) fetal bovine serum. Controls were incubated solely and with 0.02% DMSO and the cultures were readily incubated with the natural compounds. Mobile epimastigote forms were considered as viable forms, and were counted on Neubauer chambers using phase contrast microscopy.
Epimastigotes of T. cruzi (Dm28c strain) were cultured at 27°C in Bacto™ Brain Heart infusion (BHI, Becton Dickinson Company, USA) supplemented with 10 μg.mL^-1 hemin, 0.02 g.L^-1 folic acid (from Sigma-Aldrich, USA) and 10% (v/v) of heat inactivated fetal bovine serum (FCS, Gibco/Life technologies).
Epimastigotes forms of T. cruzi, Dm28c strain (2x10^5 cells.mL^-1), were grown for 7 days in BHI culture medium at 26°C. Some cultures were treated with curcumin (CUR), demethoxycurcumin (DMC), bisdemethoxycurcumin (BDMC) or cyclocurcumin (CC) at concentrations of 100, 50, 25 and 2 μM. Viable forms were counted in Neubauer chambers under phase contrast microscopy using 40X objectives. Data representing three independent experiments.
Supplementary file pone.0162926.s002.tif: S2 Fig T. cruzi epimastigotes (Dm28c strain) were cultivated for 7 days in BHI (Brain Heart Infusion) culture medium supplemented with hemin, folic acid and 10% fetal bovine serum at 26°C, and readily treated with CUR, DMC, BDMC and CC at the indicated concentrations ranging from 2 to 100μM. Viable forms were counted on Neubauer chambers under phase microscopy at the seventh day. The data presented were obtained from three representative independent experiments. (TIF) Click here for additional data file.

In another data set the test system is MCF-7 tumor cells. Further details: method as in PMID 9714342. Particulars: cited from earlier work.
The test system of data set [3] is Sterol 14α-demethylase (CYP51). Briefly: Sterol content (lanosterol/ergosterol ratio) of treated epimastigotes by RP-HPLC. The format is cell-based, Trypanosoma cruzi. As for the experimental part: Since the detachment of the flagellar membrane was reported in T. cruzi and L. amazonensis treated with sterol biosynthesis inhibitors, the results obtained in microscopy study led us to investigate the sterol content of epimastigotes treated with CUR. Sterol 14α-demethylase (CYP51) is the enzyme involved in conversion of lanosterol to ergosterol in the parasite cell by oxidative removal of the sterol 14α-methyl group, being a key step in the biosynthesis of cell membrane 14 α-demethylated sterols and consequently in the maintenance of the cell viability. Thus, this enzyme is a promising target for chemotherapy of Chagas disease. The method reported by Pinto and co-workers for steroid determination on fungi was adapted to T. cruzi epimastigotes. After saponification followed by n-hexane extraction of a T. cruzi epimastigote pellet cultivated in the presence of two different concentrations of CUR, the organic layer was concentrated and submitted to RP-HPLC analysis (as shown in S5 Fig). […] It seems that in both treatments the parasite membrane-cytoskeleton linkage has been compromised.
6x10^6 epimastigotes of T. cruzi (Dm28c strain) were grown for 7 days in 30mL of BHI culture medium at 26°C. Some cultures were treated with curcumin (CUR, 5 and 10 μM), posaconazole (0.05 and 0.1 μM). The cultures were submitted to centrifugation at 2100 rpm for 10 minutes. […]

Data set [4] has as its system Peritoneal macrophages (Mø). The data set is classed as cell-based. Particulars: murine peritoneal macrophages, 48 h, trypan blue. On the procedure: (§1) The natural products have been subjected to a cytotoxicity assay on two distinct murine cell types. These compounds were tested upon macrophages (Mø), which are host cells during T. cruzi infection and splenocytes as lymphocytes are highly sensitive to external agents. The maintenance of cell viability at presence of the curcuminoids may indicate their low toxicity to mammalian cells. Peritoneal macrophages harvested from Balb/c mice were treated for 48 hours with concentrations of each test substance (S3 Fig). Splenocyte viability assays were performed in cells obtained from BALB/c mice and grown from a 5x10^5 cells.mL^-1 suspension (S4 Fig). For both cell types, viability was assessed by the trypan blue dye exclusion method, because colorimetric methods such as XTT were not suitable due to influence of the curcumin chromophoric properties. The results obtained on the evaluation of CUR, DMC, BDMC and CC against T. cruzi epimastigotes as well as the results of two host cell types treated with a 100 μM concentration of each compound are summarized in Table 1. […]
Supplementary file pone.0162926.s003.tif: S3 Fig Peritoneal macrophages obtained from BALB/c mice were cultured in triplicates at concentration of 5x10^5cells.mL^-1. […] Cell viability was assessed by exclusion method using trypan blue. […]

The subject of a further data set is Splenocytes. The data set is classed as cell-based. As to conditions: murine splenocytes, 48 h, trypan blue. On the procedure: as §1, with “properties.” for “properties. The results obtained on the evaluation of CUR, DMC, BDMC and CC against T. cruzi epimastigotes as well as the results of two host cell types treated with a 100 μM concentration of each compound are summarized in Table 1.”
Splenic lymphocytes were obtained from male BALB/c mice and plated at 5x10^5 cells.mL^-1 in triplicate. […] Viability was evaluated by the exclusion method using trypan blue and the data shown is representative of three independent experiments.
Supplementary file pone.0162926.s004.tif: S4 Fig Lymphocytes were obtained from the spleen of BALB/c mice and cultivated at concentration of 5x10^5 cells.mL^-1. […] Cell viability was assessed by exclusion method using trypan blue. […]

The mark [5] stands for this setting: Trypanosoma cruzi, 168 h, epimastigotes, Dm28c strain, 7 days.

A word on the IC50: it is the concentration needed to halve the response being measured. `O=C(/C=C/c1ccc(O)cc1)CC(=O)/C=C/c1ccc(O)cc1` [BDMC, bisdemethoxycurcumin]: the “cells in the G2 phase” value in data set [1] (100 μM, non-treated cells 20%) is 40%. Also, the “activity on proliferation/survival of epimastigotes (in words)” value (from here on “activity on proliferation/survival”) in data set [2] (7 days) is reported as “active”. The IC50 in data set [2] (setting [5]) was determined as 45.3 µM.
On to `COc1cc(/C=C/C2=CC(=O)CC(c3ccc(O)c(OC)c3)O2)ccc1O` (centres unmarked) [CC, cyclocurcumin], for which, in the data set on MCF-7 tumor cells, the “inhibition of MCF-7 tumor cells proliferation” value is “inactive”. Also, in data set [2] (7 days), the “activity on proliferation/survival” value is “inactive”. Further, in data set [2] (setting [5]), the IC50 was over 100 µM.
As for `COc1cc(/C=C/C(=O)CC(=O)/C=C/c2ccc(O)c(OC)c2)ccc1O` [CUR, Curcumin], the “cells in the G2 phase” value in data set [1] (100 μM, non-treated cells 20%) came to 45%. In addition, in data set [3] (CUR 5 and 10 μM, 7 days), the “lanosterol/ergosterol ratio vs untreated control” value is on record as “no significant difference”. Also, the “activity on proliferation/survival” value in data set [2] (7 days) was “active”. In addition, the IC50 in data set [2] (Trypanosoma cruzi, 168 h) was found to be 10.1 µM.
`CC(=O)O[C@H]1C(=O)[C@@]2(C)[C@H]([C@H](OC(=O)c3ccccc3)[C@]3(O)C[C@H](OC(=O)[C@H](O)[C@@H](NC(=O)c4ccccc4)c4ccccc4)C(C)=C1C3(C)C)[C@]1(OC(C)=O)CO[C@@H]1C[C@@H]2O` [paclitaxel, reference compound]: in data set [1] (20 μM, positive control), the “cells in the G2 phase” value is 57%.
With `CC[C@@H]([C@H](C)O)n1ncn(-c2ccc(N3CCN(c4ccc(OC[C@@H]5CO[C@@](Cn6cncn6)(c6ccc(F)cc6F)C5)cc4)CC3)cc2)c1=O` [posaconazole, reference compound], the “lanosterol/ergosterol ratio vs untreated control” value in data set [3] (posaconazole 0.05 and 0.1 μM, positive control) was “significant increase”.
For the molecule demethoxycurcumin [DMC], the “LD50 Mø” value in data set [4] was over 100 µM. In the data set on Splenocytes, the “LD50 Splenocytes” value is over 100 µM. In addition, the “cells in the G2 phase” value in data set [1] (100 μM, non-treated cells 20%) was 52%. In addition, the “activity on proliferation/survival” value in data set [2] (7 days) is “active”. In data set [2] (epimastigotes, Dm28c strain, 7 days), the IC50 worked out at 11.1 µM.
